Where “and” joins values, the source holds several entries; their conditions need not be identical. Equal entries are not always repeated. Entries after “also recorded” stand apart in the source; their conditions may differ.
Tests used:
[1] = SARD compound serum concentrations in Hershberger rats (LC-MS/MS); conditions: for Conc of 1065: serum of individual rats, 24-30 hours after the last dose, standards in nM
[2] = HLM metabolism (half-life); format: in vitro ADME, human; conditions: for HLM Metabolism (H.L. min): human liver microsomes half-life
Method: (§1) Table 4 reports the in vitro efficacy (transactivation/degradation) and metabolism (rat liver microsomes (RLM) and human LM (HLM) half-lives) data, in vivo efficacy (S.V. and prostate % diff in rats) and serum concentration in rats for all the compounds in the 20 mg/kg Hershberger experiment. […].

[3] = RLM metabolism (half-life); format: in vitro ADME; conditions: rat liver microsomes half-life
Method: as §1

[4] = test system: Intact Sprague Dawley rats; assay: Hershberger assay, seminal vesicles and prostate weights; format: in vivo, rat
Method: Dosing solutions were prepared in 20% DMSO+80% PEG. Fourteen days after the initiation of treatment, animals were sacrificed and tissue weights were recorded. Body weights were measured on day 1 and at the time of sacrifice. Tissue weights were normalized to body weight and represented as percent change from vehicle-treated animals.

hAR-LBD (633-919) = molecular target: T1, hAR-LBD (633-919) (Homo sapiens, UniProt P10275); assay: Ligand binding assay, GST-AR-LBD with [3H]mibolerone
T1 construct: GST (N); made in house
T1 sequence (P10275 634-920): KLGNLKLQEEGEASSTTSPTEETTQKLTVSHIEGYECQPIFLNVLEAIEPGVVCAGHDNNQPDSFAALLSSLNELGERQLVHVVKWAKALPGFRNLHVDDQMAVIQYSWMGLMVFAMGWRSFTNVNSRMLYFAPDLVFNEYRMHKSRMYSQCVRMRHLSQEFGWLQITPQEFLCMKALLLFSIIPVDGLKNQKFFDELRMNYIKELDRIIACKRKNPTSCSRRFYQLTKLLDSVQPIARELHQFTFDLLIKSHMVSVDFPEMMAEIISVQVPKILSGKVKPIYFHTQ
Method: Objective: To determine SARDs binding affinity to the AR-LBD.
Non-specific binding was then subtracted from total binding to determine specific binding and non-linear regression for ligand binding curve with one site saturation to determine the Kd of mibolerone.
Following incubation, the ligand bound AR-LBD complex was isolated using Bio Gel HT® hydroxyapatite, washed and counted in a scintillation counter after adding scintillation cocktail.

full length AR = assay: LNCaP or AD1 degradation (full length AR, Western blot); format: cell-based
Method: The numbers under each lane represents the % change from vehicle. The bands were quantified using ImageJ® software. For each lane, the AR band was divided by GAPDH band and the % difference from vehicle was calculated and represented under each lane. The numbers shown are 0 (no degradation) or represented as decreases in AR levels normalized for GAPDH levels (some values represented as positive but still indicate degradation).
Method: LNCaP or AD1 cells expressing full length AR were plated at 750,000-1,000,000 cells/well of a 6 well plate in growth medium (RPMI+10% FBS). Twenty four hours after plating, medium was changed to RPMI+1% csFBS without phenol red and maintained in this medium for 2 days. […] Protein was extracted using salt-containing lysis buffer with three freeze-thaw cycles. Protein concentration was estimated and five microgram of total protein was loaded on a SDS-PAGE, fractionated, and transferred to a PVDF membrane. […]
The numbers under each lane represents the % change from vehicle. The bands were quantified using ImageJ software. For each lane, the AR band was divided by GAPDH band and the % difference from vehicle was calculated and represented under each lane The numbers shown are 0 (no degradation) or represented as decreases in AR levels normalized for GAPDH levels (some values represented as positive but still indicate degradation).

AR wildtype (wt) = AR wildtype (wt) (Homo sapiens, UniProt P10275); assay: Transactivation assay with wt AR (GRE-LUC luciferase); format: cell-based
Method: COS7 cells were transfected with 0.25 μg GRE-LUC, 0.01 g CMV-renilla LUC, and 25 ng CMV-hAR using Lipofectamine in OptiMEM® medium. […] Firefly luciferase values were normalized to renilla luciferase values.
Firefly luciferase values were normalized to renilla luciferase values.
Human AR cloned into CMV vector backbone was used for the transactivation study. HEK-293 cells were plated at 120,000 cells per well of a 24 well plate in DME+5% csFBS. […] Data are represented as IC50 obtained from four parameter logistics curve.

PR = molecular target: T2, PR (Homo sapiens, UniProt P06401); conditions: positive control
T2 sequence (P06401 1-933): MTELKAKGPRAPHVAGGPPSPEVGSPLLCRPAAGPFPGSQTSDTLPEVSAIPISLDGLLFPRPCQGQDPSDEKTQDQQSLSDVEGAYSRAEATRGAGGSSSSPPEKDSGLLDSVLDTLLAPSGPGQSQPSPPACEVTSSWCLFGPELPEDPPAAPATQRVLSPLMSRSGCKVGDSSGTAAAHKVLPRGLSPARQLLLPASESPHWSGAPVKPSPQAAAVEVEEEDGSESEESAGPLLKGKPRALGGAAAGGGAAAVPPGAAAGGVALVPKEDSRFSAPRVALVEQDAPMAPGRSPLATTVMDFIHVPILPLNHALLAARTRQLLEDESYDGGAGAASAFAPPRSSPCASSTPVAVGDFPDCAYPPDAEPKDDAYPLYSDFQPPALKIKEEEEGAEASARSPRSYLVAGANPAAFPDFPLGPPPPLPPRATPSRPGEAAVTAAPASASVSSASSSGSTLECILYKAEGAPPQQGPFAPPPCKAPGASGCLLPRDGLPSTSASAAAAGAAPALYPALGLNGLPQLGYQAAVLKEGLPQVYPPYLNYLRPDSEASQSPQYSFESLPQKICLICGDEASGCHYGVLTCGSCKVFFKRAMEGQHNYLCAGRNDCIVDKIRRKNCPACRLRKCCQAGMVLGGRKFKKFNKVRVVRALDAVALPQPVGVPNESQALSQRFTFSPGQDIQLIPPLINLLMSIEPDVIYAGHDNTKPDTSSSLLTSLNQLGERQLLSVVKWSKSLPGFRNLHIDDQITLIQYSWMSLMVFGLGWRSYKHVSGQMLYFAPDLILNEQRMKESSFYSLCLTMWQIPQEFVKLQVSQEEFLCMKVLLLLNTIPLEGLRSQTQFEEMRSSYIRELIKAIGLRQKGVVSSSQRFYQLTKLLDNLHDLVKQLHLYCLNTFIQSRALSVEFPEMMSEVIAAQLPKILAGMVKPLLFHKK

[5] = Table 2, rats, 20 mg/kg daily for 13 days
[6] = 20 mg/kg Hershberger experiment

Chain of AR wildtype (wt) (P10275 whole entry): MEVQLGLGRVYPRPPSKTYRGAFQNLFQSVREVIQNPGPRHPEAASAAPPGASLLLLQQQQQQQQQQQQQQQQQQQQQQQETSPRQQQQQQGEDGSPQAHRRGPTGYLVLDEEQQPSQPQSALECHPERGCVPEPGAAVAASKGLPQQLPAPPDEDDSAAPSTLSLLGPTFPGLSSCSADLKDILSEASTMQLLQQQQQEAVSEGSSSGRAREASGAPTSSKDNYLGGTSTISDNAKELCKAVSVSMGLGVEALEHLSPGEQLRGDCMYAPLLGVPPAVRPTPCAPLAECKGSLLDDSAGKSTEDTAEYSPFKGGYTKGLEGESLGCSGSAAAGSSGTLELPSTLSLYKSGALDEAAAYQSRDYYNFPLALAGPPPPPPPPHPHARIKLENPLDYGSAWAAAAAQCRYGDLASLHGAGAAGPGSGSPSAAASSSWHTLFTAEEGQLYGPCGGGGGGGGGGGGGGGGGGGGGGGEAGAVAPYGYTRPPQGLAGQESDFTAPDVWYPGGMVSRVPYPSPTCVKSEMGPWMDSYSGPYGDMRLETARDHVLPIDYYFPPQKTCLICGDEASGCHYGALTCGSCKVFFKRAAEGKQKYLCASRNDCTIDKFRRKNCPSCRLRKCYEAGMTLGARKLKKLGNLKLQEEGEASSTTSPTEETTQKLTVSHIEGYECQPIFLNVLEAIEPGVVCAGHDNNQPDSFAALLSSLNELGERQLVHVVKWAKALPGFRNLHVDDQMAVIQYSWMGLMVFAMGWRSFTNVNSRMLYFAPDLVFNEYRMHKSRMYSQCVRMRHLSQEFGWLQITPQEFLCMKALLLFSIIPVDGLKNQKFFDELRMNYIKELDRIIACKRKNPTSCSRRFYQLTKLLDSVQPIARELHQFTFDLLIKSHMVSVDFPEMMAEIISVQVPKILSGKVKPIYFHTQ

C[C@](O)(Cn1cc(F)cn1)C(=O)Nc1ccc(C#N)c(C(F)(F)F)c1.O=C(O)C(O)C(O)C(=O)O [1002 tartarate]
Serum conc. [1, 5]: 12.4 nM

C[C@](O)(Cn1ccc2cc(F)ccc21)C(=O)Nc1ccc(C#N)c(C(F)(F)F)c1 [Compound 11]
HLM Metabolism (H.L. min) [2]: 6 min

C[C@](O)(Cn1cc(F)cn1)C(=O)Nc1ccc(C#N)c(C(F)(F)F)c1 [Compound 1002]
Serum conc. [1, 5]: 9.3 nM

C[C@](O)(Cn1cc(C(F)(F)F)cn1)C(=O)Nc1ccc(C#N)c(C(F)(F)F)c1 [Compound 1017]
HLM Metabolism (H.L. min) [2]: 400 min | RLM Metabolism (H.L. min) [3]: 400 min

C[C@](O)(Cn1cc(F)cn1)C(=O)Nc1cnc(C#N)c(C(F)(F)F)c1 [Compound 1022]
HLM Metabolism (H.L. min) [2]: 82 min | RLM Metabolism (H.L. min) [3]: 78 min | Serum conc. [1, 5]: 64 nM | Serum conc. ([1]; Table 4, rats, 20 mg/kg): 33 nM

C[C@](O)(Cn1cc(C#N)cn1)C(=O)Nc1ccc(C#N)c(C(F)(F)F)c1 [Compound 1048]
HLM Metabolism (H.L. min) [2]: 400 min | RLM Metabolism (H.L. min) [3]: 86 min

C[C@](O)(Cn1cc(Br)c(F)n1)C(=O)Nc1ccc(C#N)c(C(F)(F)F)c1 [Compound 1058, (S)-3-(4-Bromo-3-fluoro-1H-pyrazol-1-yl)-N-(4-cyano-3-(trifluoromethyl)phenyl)-2-hydroxy-2-methylpropanamide]
HLM Metabolism (H.L. min) [2]: 138 min | RLM Metabolism (H.L. min) [3]: 400 min

C[C@](O)(Cn1cc(C#N)cn1)C(=O)Nc1cnc(C#N)c(C(F)(F)F)c1 [Compound 1065]
(Prostate) % diff [4, 6]: .58% | (S.V.) % diff [4, 6]: .88% | Seminal vesicles weight reduction / in vivo AR antagonism, in words ([4]; 20 mg/kg, compared to 1002 or castration): full AR antagonism in vivo; also recorded: reached castration levels; also recorded: significantly improved efficacy | Prostate weight reduction, improved efficacy compared to 1002 ([4]; FIGS. 7C and 7D): approximately 45% | HLM Metabolism, % metabolized after 60 min ([2]; after 60 min): 10% | HLM Metabolism (H.L. min) [2]: STABLE | RLM Metabolism (H.L. min) [3]: 84 min | Serum conc. ([1]; Table 4, rats, 20 mg/kg): 561 nM | Conc of 1065 ([1]; 1 mg/kg, 1 mg/kg): 81.58 and 87.25 and 120.1244 and 134.5505 and 129.9323 | Conc of 1065 ([1]; 5 mg/kg, 5 mg/kg): 630.4879 and 691.1901 and 485.4264 and 967.3936 and 798.7984 | Conc of 1065 ([1]; 10 mg/kg, 10 mg/kg): 637.641 and 915.1312 and 824.8076 and 681.9936 and 795.917 | Conc of 1065 ([1]; 20 mg/kg, 20 mg/kg): 1286.902 and 1298.179 and 1360.687 and 1397.834 and 1193.986

C[C@](O)(Cn1cc(Cl)c(Br)n1)C(=O)Nc1ccc(C#N)c(C(F)(F)F)c1 [Compound 1066]
HLM Metabolism (H.L. min) [2]: 319 min | RLM Metabolism (H.L. min) [3]: 300 min

C[C@@H](Cn1cc(F)cn1)NC(=O)c1ccc(C#N)c(C(F)(F)F)c1 [Compound 1068, (S)-4-Cyano-N-(1-(4-fluoro-1H-pyrazol-1-yl)propan-2-yl)-3-(trifluoromethyl)benzamide]
wtAR Binding Ki (nM) (DHT = 1 nM) (hAR-LBD (633-919)): no binding | SARD Activity Full Length % inhibition at 1 μM (full length AR; first of two values in the cell, 1 μM): 62% | SARD Activity Full Length % inhibition at 10 μM (full length AR; second of two values in the cell, 10 μM): 96% | IC50 (AR wildtype (wt)): 417 nM

CNC(=O)c1ccc(N2C(=S)N(c3ccc(C#N)c(C(F)(F)F)c3)C(=O)C2(C)C)cc1F [Enzalutamide, reference compound]
Seminal vesicles weight reduction compared to 1002, in words ([4]; enzalutamide 30 mg/kg): marginally improved

CC(=O)[C@H]1CC[C@H]2[C@@H]3CCC4=CC(=O)CC[C@]4(C)[C@H]3CC[C@]12C [progesterone]
PR agonism, in words (PR): potent and full efficacy agonist activity
